Data as given in patent US9140705B2, “Tumor suppressor killin” (Vanderbilt University, priority 2005, dated 2015).

Tests used:
E. coli = assay: Bacterial expression / toxicity (colony formation) of Killin and truncated Killin; type: cell-based; conditions: for toxicity to E. coli (colony formation in the absence of transcriptional repression): pQE32 plasmids expressing truncated Killin
Procedure: Mutagenesis experiments were performed using EMS (ethylmethanesulfonate) (Sigma) as described previously with minor modification. Exponentially growing XL-1 blue with pQE32-Killin was harvested by centrifugation, washed, and resuspended in minimal A buffer (10.5 g of K2HPO4, 4.5 g of KH2PO4, 1 g of [NH4]2SO4, and 0.5 g of sodium citrate:2H2O in 1 liter). EMS was added to the cells at a concentration of 140 μM for 1 hour during continuous shaking at 37° C. After washing with minimal A buffer, cells was diluted 1:10 in LB medium and grown for 6 hrs at 37° C. before mutagenized plasmids were purified and transformed into either GH1 (without repression, GenHunter) or XL-1 blue (with repression, Stratagene) competent cells. Ampicilin resistant colonies were scored after an overnight incubation.
For deletion analysis, PCR was performed to amplify different regions of Killin as specified. PCR primer sequences used for the deletions are listed below:
The obtained PCR products were first cloned into PCR-TRAP cloning vector and then subcloned as BglII fragments into the BamHI site of the pQE32 6XHIS-tag expression vector (Qiagen). The expression vectors were transformed into XL-1 blue under transcription repression for the transgene (−IPTG). […] As a negative control, all vectors were simultaneously transformed into XL-1 blue cells, which gave near confluent transformants under transcription repression for all constructs. Similar deletion constructs were also made as GFP fusion protein as described above and transiently transfected into the H1299 cells to visualized their ability to cause cell apoptosis based on nuclear chromosome condensation.

double-stranded DNA = assay: In vitro DNA binding assay (gel shift, 32P-end labeled probes), double-stranded DNA template; conditions: 32P-end labeled oligo nucleotide probes, read-out: apparent Kd
Procedure: (§1) In vitro transcribed and translated Killin cloned into pcDNA3.1 (Invitrogen) (K), or vector alone (V) were labeled with ^35S using Translabel (ICN) and a TnT kit (Promega). The labeled Killin and vector control were incubated with either single-stranded (ss) or double-stranded (ds) DNA cellulose (Sigma). After washing with PBS, bound proteins were resolved on a 15% SDS-PAGE gel, dried onto as 3M paper before autoradiography. For peptide binding, 42 as of Killin/N8-50 peptide (MW: 5007 dalton) was synthesized and verified with mass spec by Sigma-Genosys at a purity of at least 70%. The peptide was dissolved in PBS as 1 mg/mL stock solution before use, For in vitro DNA binding assay, 3 primers (32-35 bases in length) with arbitrary sequences were designed:
(§2) After annealing, probes for artificial replication fork (LL and RL) or double-stranded DNA template (LL and RLM) were end-labeled with α-^32P-dATP (Perkin-Elmer) using Klenow (New England Biolab). Single-stranded oligonucleotide (LL) was end-labeled with […] (Perkin-Elmer) using T4 polynucleotide kinase (New England Biolab). […] For binding kinetics, bands from DNA-peptide complex were excised and the radioactivity was determined by scintillation counting. […]

[1] = target: artificial replication fork; assay: In vitro DNA binding assay (gel shift, 32P-end labeled probes), artificial replication fork; conditions: 32P-end labeled oligo nucleotide probes, read-out: apparent Kd
Procedure: as §1, §2

single-stranded DNA = assay: In vitro DNA binding assay (gel shift, 32P-end labeled probes), single-stranded DNA template; conditions: 32P-end labeled oligo nucleotide probe, read-out: apparent Kd
Procedure: as §1, §2

[2] = system: SV40 origin (ori) of replication-dependent in vitro DNA replication; assay: In vitro SV40 DNA replication assay; type: biochemical, simian virus 40 (SV40); conditions: peptide 1 to 16 μM; HEK293T nuclear extract as source of SV40 large T antigen
Procedure: The SV40 origin (ori) of replication-dependent in vitro DNA replication was carried out essentially as described previously (L1 and Kelly, 1984) with minor modifications. Briefly, the source of SV40 large T antigen was from HEK293T cells (GenHunter). The SV40 ori-containing plasmid vector pAPtag-2 (GenHunter) and a negative control vector pUC18 that lacks SV40 ori were used as templates for the in vitro DNA replication assays. 10 ng of nuclear protein extracts and 250 ng of plasmid DNA template were used for each assay. Nascent DNA synthesis in the absence and presence of Killin/N8-50 peptide after ^32P-α-dATP labeling was analyzed on a 6% TBE PAGE gel, dried onto a 3 M paper (Whatman) and visualize by autoradiography.
To determine if Killin/N8-50 peptide binding to DNA has any consequences in DNA replication, the inventors employed the commonly used in vitro eukayotic DNA replication assays originally described by L1 and Kelly (1984). This assay uses soluble cell-free system derived from mammalian cell nuclear extract that is capable of replicating exogenous plasmid DNA molecules containing the simian virus 40 (SV40) origin of replication. Replication in the system is completely dependent upon the addition of the SV40 large T antigen. […]

[3] = system: single-stranded (ss) DNA cellulose; assay: DNA cellulose binding of in vitro transcribed and translated 35S-labeled Killin, single-stranded; conditions: washed with PBS
Procedure: as §1, with “designed: […]” for “designed:”

[4] = system: double-stranded (ds) DNA cellulose; assay: DNA cellulose binding of in vitro transcribed and translated 35S-labeled Killin, double-stranded; conditions: washed with PBS
Procedure: as §1, with “designed: […]” for “designed:”

Molecule: C-terminal 124-178 amino acid residues: Killin coding region truncated at unique Eco41III site, C-terminal part (CRGWRLGNWLHKHPHPNTCPRLPACWLPPILTERGERVPKLVPLLACYPKSKPKD; UniProt B2CW77 124-178, looked up, fragment)
- toxicity to E. coli (colony formation in the absence of transcriptional repression) (E. coli): able to transform E. coli into colonies

Molecule: Killin/N8-50: chemically synthesized peptide of 42 amino acid residues corresponding to N8-50 of Killin (SARPGRTVHVWGYRVEWKVRNGRKLQPSEWAGRGDLGGFKRRW; UniProt B2CW77 8-50, looked up, fragment)
- Kd (double-stranded DNA): 1000 nM
- Kd [1]: 1000 nM
- Kd (single-stranded DNA): 500 nM
- inhibition of DNA replication in vitro [2]: greatly inhibit DNA replication

B1: N-terminal 123 amino acids: Killin coding region truncated at unique Eco41III site, N-terminal part (protein, UniProt B2CW77 1-123, looked up, fragment)
chain: MDRPGPGSARPGRTVHVWGYRVEWKVRNGRKLQPSEWAGRGDLGGFKRRWKDTRATVGTTFRRRSRVSLVGELSKFPLPSDSSGGKSSSSFARGALAWCRQRNPNPSCAAAETGARTSLPKER
- toxicity to E. coli (colony formation in the absence of transcriptional repression) (E. coli): sufficient to retain toxicity to E. coli

B2: Killin: novel 20 kDa basic nuclear DNA binding protein of 178 amino acids (SEQ ID NO:1), p53 target gene product (protein, listed as Homo sapiens)
chain: MDRPGPGSARPGRTVHVWGYRVEWKVRNGRKLQPSEWAGRGDLGGFKRRWKDTRATVGTTFRRRSRVSLVGELSKFPLPSDSSGGKSSSSFARGALAWCRQRNPNPSCAAAETGARTSLPKERCRGWRLGNWLHKHPHPNTCPRLPACWLPPILTERGERVPKLVPLLACYPKSKPKD
- binding to DNA template [3]: able to bind
- binding to DNA template [4]: able to bind

B3: 6×HIS-tagged Killin: bacterially expressed full-length N-terminal His-tagged Killin (pQE32 vector) (protein, UniProt B2CW77 1-178, looked up)
chain: MDRPGPGSARPGRTVHVWGYRVEWKVRNGRKLQPSEWAGRGDLGGFKRRWKDTRATVGTTFRRRSRVSLVGELSKFPLPSDSSGGKSSSSFARGALAWCRQRNPNPSCAAAETGARTSLPKERCRGWRLGNWLHKHPHPNTCPRLPACWLPPILTERGERVPKLVPLLACYPKSKPKD
modifications: full-length N-terminal His6 tag
- time to growth arrest of the bacteria hosts after IPTG induction (E. coli; bacterial expression, induction by IPTG): ≤ 30 min
